According to patent US6579883B1, “Fluorinated 3,4-dihydroquinoline derivatives used as NOS inhibitors” (Schering Aktiengesellschaft, priority 1998, dated 2003):

Assays:
bNOS = bNOS (Homo sapiens, UniProt P29475); assay: bNOS inhibition (method of Bredt and Snyder); assay type: biochemical; details: Proc. Natl. Acad. Sci. USA (1989) 86, 9030-9033
Excerpt: The NOS-inhibitory action of the compounds of Formula (I) and their physiologically compatible salts can be determined according to the methods by Bredt and Snyder in Proc. Natl. Acad. Sci. USA (1989) 86, 9030-9033.

NC1=Nc2c(F)cccc2C2CCCC12F (centres unmarked) [Example 2, 4-amino-3a,6-difluoro-2,3,3a,9b-tetrahydro-1H-cyclopenta[c]quinoline]
IC50 (bNOS): 590 nM

NC1=Nc2ccc(Br)cc2C2CCCC12F (centres unmarked) [Example 3, 4-Amino-8-bromo-3a-fluoro-2,3,3a,9b-tetrahydro-1H-cyclopenta[c]quinoline]
melting point: 220 °C
